Measured values from patent US20260306491A1, “EGFR INHIBITOR FOR TREATING CANCERS COMPRISING ATYPICAL EGFR MUTATIONS” (ORIC Pharmaceuticals, Inc., priority 2023, published 2026).
Where “and” joins values, the source holds several entries; their conditions need not be identical. Equal values may be shown once.

Tested on: EGFR exon 20 insertion mutated NSCLC
Assay: Clinical study: duration of treatment and antitumor response, EGFR exon 20 insertion mutated NSCLC (Example 10)
Format: in vivo, human
Conditions: oral hemifumarate, one value per subject
Experimental: A clinical study was conducted using Compound I in human subjects having non-small cell lung cancer (NSCLC) comprising EGFR exon 20 insertion mutations, HER2 exon 20 insertion mutations, or HER2 amplification or overexpression. A total of 50 human subjects having non-small cell lung cancer comprising one or more EGFR exon 20 insertion mutations, HER2 exon 20 insertion mutations, or HER2 amplification or overexpression were enrolled in the study as of Jul. 31, 2023 with data collected as of Sep. 26, 2023. The subjects were enrolled into one of ten dosing cohorts that were each orally administered Compound I in the form of a hemifumarate salt as shown in Table 13 (QD=once per day; BID=twice per day).
Duration of treatment and antitumor responses achieved in evaluable subjects with EGFR exon 20 insertion mutated NSCLC (dose level greater than or equal to 45 mg TDD and at least one post-baseline tumor assessment) who were administered Compound I in the form of a hemifumarate salt are set forth in Tables 19 and 20, respectively.

C=CC(=O)Nc1cc(Nc2cc(N3OCC[C@@H]3c3cc(F)cc(F)c3)ncn2)c(OC)cc1N1CCC(N2CCN(C3CC3)CC2)CC1 [Compound I, N-[2-[4-(4-cyclopropyl-1-piperazinyl)-1-piperidinyl]-5-[[6-[(3R)-3-(3,5-difluorophenyl)-2-isoxazolidinyl]-4-pyrimidinyl]amino]-4-methoxyphenyl]-2-propenamide]
Duration of treatment (dosing cohort 30 BID): ongoing
Duration of treatment (dosing cohort 45 QD): 84 days and ongoing and 134 days and 28 days
Duration of treatment (dosing cohort 60 QD): 33 days and ongoing and 20 days
Duration of treatment (dosing cohort 75 QD): 90 days and 109 days and 20 days and ongoing
Duration of treatment (dosing cohort 90 QD): 28 days and 52 days
